No end group written: not given here.
Experiments:
[1] = Circular Dichroism (CD) spectroscopy, secondary structure (K2D3); format: physicochemical; conditions: 90 μM, TFE/np water 50% v/v, 20° C.
Description: Circular Dichroism spectra were recorded on a Jasco J-1500 CD Spectrometer (Jasco, Inc., Easton, MD). Both peptides (MH5C, MH5C-Cys) were dissolved according to the protocol published by Dennison et al. (2015) with 2,2,2-Trifluoroethanol and np water (TFE/np water mixture; 50% v/v) as co-solvent for this peptide.^26 The final concentration was set to 90 μM and the samples were ultra-centrifuged (29,100 rpm) for 1 hour at 20° C. Subsequently, 400 μL of the supernatant of each peptide was added to a rectangular quartz cell with 1 mm path length to evaluate secondary structures. The wavelength ranged from 250-190 nm and scanning speed was 50 nm/min at 20° C. The data obtained were triplicated and then averaged for each sample. In addition, the thermodynamics and unfolding of peptides was studied with this equipment. This technique was used to observe the secondary structure at wavelength complete spectra as a function of temperature.^27 The temperature range from 20° C. to 90° C. was used.
For the secondary structure estimation, the K2D3 method was utilized as described elsewhere.^40 After obtaining the data, a predictive method that utilizes the information from the database Protein Data Bank (PDB) was employed. With this information, a theoretical prediction of CD, known as DichroCalc was obtained.^41 Then, the method K2D3 was utilized, which can predict secondary structures of peptides and proteins in recorded wavelengths between 200 nm to 240 nm in a non-redundant form. The results of these calculations are the predicted percentages for alpha-helix and beta-strand content.^40 The following equation was employed for this prediction:^42

[2] = Zeta potential of peptides; format: physicochemical; conditions: sample pH 4.5 (MH5C), 5.9 (MH5C-Cys)
Description: Likewise, zeta potential was conducted in order to determine the overall charge of the modified and unmodified peptide. The zeta potential is highly dependent on the pH as it directly affects the overall charge of the colloidal species. Therefore, it was of interest to know the isoelectric point of the peptides. Using ExPASy ProtParam tool (https://web.expasy.org/protparam/), the theoretical isoelectric points of MH5C and MH5C-Cys, were determined at 3.42 in both cases. In this study the pH of each sample, MH5C was 4.5 and 5.9 for the MH5C-Cys. This is an important condition for the stability of the formulation, as no precipitation will occur under the conditions of the experiment.^36 MH5C had positive zeta potential values (46.6±0.9) compared to the MH5C-Cys (−94±4).

[3] = test system: P. aeruginosa (ATCC 27853); format: cell-based, Pseudomonas aeruginosa; conditions: for Minimum Inhibition Concentration (MIC): 24 hours, 1.0×10^8 CFU/mL; for kind of antibacterial effect (growth curves): peptides: after 12 hours of growth; for bacterial growth (growth curves): up to 24 hours, 37° C.
Text: (§1) To determine the antimicrobial activity of the peptides against the pathogenic bacteria P. aeruginosa (ATCC 27853)22 and E. coli (ATCC 25922)23, the following materials were used: Costar 96-well plates Flat Bottom (Sterile Low Evaporation Lid, Corning, USA.), Calgary Biofilm Device (Innovotech Inc.), Glycerol 100% purity. The nutrient agar and broth used were BBL TSA II Trypticase Soy Agar (TSA) and BBL Trypticase Soy Broth (TSB) and were purchased from Becton, Dickinson and Company (BD).
(§2) For these assays, bacteria of interest were thawed, and serial cultured to reach optimal metabolic activity after being defrosted. Optical Density (O.D.) measured with a Genesys 10S UV-VIS Spectrophotometer (O.D.600 nm) was utilized as a measure of bacterial concentration, 1.0×10^8 CFU/mL, as standardized and approved by the Clinical and Laboratory Standards Institute (CLSI).^28 The final concentration of the solvent (vehicle control) was DMSO 10%.
(§3) To create growth curves of the bacteria with and without peptides and to determine the lowest concentration in which these antimicrobial peptides present inhibition of bacterial growth, Minimum Inhibition Concentration (MIC) testing was carried out. After thawing and incubating at 37° C. for 24 hours, and after achieving target O.D., the bacteria were placed on the 96-well plate with lid together with the peptides in various concentrations. Finally, the 96-well plate was taken to the Synergy H1TM Hybrid Multi-Mode Microplate Reader to observe and study the antibacterial effect of the peptides at 37° C. during different time points (0.5 h, 5 h, 12 h, 18 h and 24 h). This process that was used in the same in the evaluation of growth using the MH5C-Cys.

[4] = Dynamic Light Scattering (DLS) of peptides in solution; format: physicochemical; conditions: 1.0 mg/mL in DMSO/np water 20% v/v; for Polydispersity Index (PDI): individual peak method
Description: To determine the stability of the peptide in solution, DLS was conducted for both peptides (MH5C and MH5C-Cys).
AMPs were dissolved in DMSO and nanopure water (DMSO/np water mixture; 20% v/v) with the final concentration at 1.0 mg/mL. First the samples were ultra-centrifuged (29,100 rpm, 1 hour at 20° C.) and later the size average of these biomolecules was studied in solution using a Malvern Zetasizer Nano instrument (4 mW 632.8 nm laser). The individual peak method was used to determine the Polydispersity Index (PdI).

[5] = test system: E. coli (ATCC 25922); format: cell-based, Escherichia coli; conditions: for Minimum Inhibition Concentration (MIC): 24 hours, 1.0×10^8 CFU/mL; for kind of antibacterial effect (growth curves): peptides: after 12 hours of growth; for bacterial growth (growth curves): up to 24 hours, 37° C.
Text: as §1, §2, §3

[6] = test system: E. coli biofilm; format: cell-based, Escherichia coli; conditions: for Minimum Biofilm Eradication Concentration (MBEC): 24 h challenge
Description: (§4) The assay was conducted according to the MBEC protocol as supplied by the manufacturer. Inoculum of each bacterium was prepared in TSB (Tryptic Soy Broth) to a final density of 1.0×10^6. In each well of the 96 well plate, 150 of the inoculated media was transferred. Assay plates were placed in an incubator for 72 h to allow growth and comparison of biofilms was performed for each bacteria strain. After 72 h, the PEG lid of the MBEC assay was transferred to a ‘challenge’ plate. Essentially, serial dilutions of each conjugated (4 kDa and 7 kDa), antimicrobial peptide, and PEG polymers were prepared in TSB to a final volume in the well plates of 200 μL (control and conjugates at 90 μM, 300 μM, and 500 μM). After exposure of the biofilm to the antimicrobial challenge for 24 h, the PEG lid was removed from the challenge plate, and the optical density measurements for each plate were recorded at 650 nm. Clear wells were taken as evidence of biofilm eradication, and MBEC values were assigned as the lowest concentration at which no growth was observed after 24 h of incubation.^31-32

[7] = test system: P. aeruginosa biofilm; test: MBIC assay (Calgary Biofilm Device); format: cell-based, Pseudomonas aeruginosa; conditions: 90 μM and 300 μM
Description: (§5) MBIC (Minimum Biofilm Inhibitory Concentration) was determined by the adherence assay using the Calgary Biofilm Device (Innovotech Inc.). In this assay, the bacteria and compounds (MH5C-Cys and both PEG conjugates) were placed together in the assay plate for 72 h to allow growth. Afterwards, CFU (Colony Forming Unit) and optical density measurements for each well were recorded at 650 nm and clear wells and growth inhibition curves were taken as evidence of biofilm inhibition.

[8] = test system: E. coli biofilm; test: MBIC assay (Calgary Biofilm Device); format: cell-based, Escherichia coli; conditions: 90 μM and 300 μM
Description: as §5

[9] = test system: P. aeruginosa biofilm; format: cell-based, Pseudomonas aeruginosa; conditions: for Minimum Biofilm Eradication Concentration (MBEC): 24 h challenge
Description: as §4

| Substance | α helix structure [1] | β strand structure [1] | zeta potential [2] | Minimum Inhibition Concentration (MIC) [3] | kind of antibacterial effect (growth curves) [3] | bacterial growth (growth curves) [3] | average apparent hydrodynamic diameter [4] | Polydispersity Index (PDI) [4] | Minimum Inhibition Concentration (MIC) [5] | kind of antibacterial effect (growth curves) [5] | bacterial growth (growth curves) [5] | time during which bacterial growth was not allowed (MBEC assay) [6] | Minimum Biofilm Eradication Concentration (MBEC) [6] | inhibition of biofilm formation (MBIC assay, CFU) [7] | inhibition of biofilm formation (MBIC assay, CFU) [8] | time during which bacterial growth was not allowed (MBEC assay) [9] | Minimum Biofilm Eradication Concentration (MBEC) [9] | kind of effect in MBEC assay ([6]; 90 μM and 300 μM, 24 h) | kind of effect in MBEC assay ([9]; 90 μM, 180 μM and 300 μM, 24 h) |
| --- | --- | --- | --- | --- | --- | --- | --- | --- | --- | --- | --- | --- | --- | --- | --- | --- | --- | --- | --- |
| ILGPVLGLVSDTLDDVLGIL-OH [MH5C] | 95.22% | 0.02% | 46.6±0.9 | 90 µM | bacteriostatic effect | did not allow bacterial growth | 0.72 ± 0.11 nm·days | 0.03 | 90 µM | bacteriostatic effect | did not allow bacterial growth |  |  |  |  |  |  |  |  |
| ILGPVLGLVSDTLDDVLGILC-OH [MH5C-Cys] | 95.36% | 0.02% | −94±4 | 90 µM | bacteriostatic effect | did not allow bacterial growth | 0.52 ± 0.44 nm·days | 0.01 | 90 µM | bacteriostatic effect | did not allow bacterial growth | 8 to 10 h | 500 µM | does not possess a significant inhibition | does not possess a significant inhibition | 8 to 10 h | 500 µM |  |  |
| KRWRIRVRVIRKC [Tet-20, KRWRIRVRVIRKC] |  |  |  | 40 µM |  |  |  |  | 15 µM |  |  |  | 300 µM |  |  |  | 300 µM | bactericidal effect | bactericidal effect |
